Here are results for 22 molecules from patent US8173645B2 (Takeda San Diego, Inc., priority 2007, dated 2012).

For the test, the target named is T1, glucokinase (GK), residues 12-465 of the human enzyme (Homo sapiens, UniProt P35557).
T1 construct: I.D. No. 1 corresponds to residues 12-465 of glucokinase; made in house; host or cells: E. coli DH10b-Tlr
T1 sequence (P35557 with tags, fused parts or gaps isoform P35557-2): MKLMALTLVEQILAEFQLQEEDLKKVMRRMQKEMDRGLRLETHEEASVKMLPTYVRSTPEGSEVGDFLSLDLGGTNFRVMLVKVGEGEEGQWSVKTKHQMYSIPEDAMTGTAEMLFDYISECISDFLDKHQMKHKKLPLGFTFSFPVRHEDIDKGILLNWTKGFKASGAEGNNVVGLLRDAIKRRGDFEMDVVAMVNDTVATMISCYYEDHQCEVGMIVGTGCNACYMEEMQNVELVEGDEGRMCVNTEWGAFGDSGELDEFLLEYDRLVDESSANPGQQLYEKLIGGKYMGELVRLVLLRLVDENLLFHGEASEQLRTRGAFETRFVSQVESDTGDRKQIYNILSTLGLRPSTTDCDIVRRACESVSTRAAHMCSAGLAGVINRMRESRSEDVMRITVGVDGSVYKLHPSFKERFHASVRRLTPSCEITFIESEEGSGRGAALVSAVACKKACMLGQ
Description: Enzymatic glucokinase activity assay (KinaseGlo luminescence, ATP consumption). Type of test: biochemical. The following applies: 5 μM ATP, 5 mM Glucose; for EC50: GK activation, Kact = concentration giving 50% of the maximal increase in GK activity, read-out: pKact; for Emax: calculated maximal gain in GK enzyme activity at a saturating concentration of the compound, read-out: % ACTmax. The text has this:
The activity of compounds as glucokinase activators may be assayed in vitro, in vivo or in a cell line. Provided below is an enzymatic glucokinase activity assay.
Purified glucokinase may be obtained as follows. DNA encoding residues 12-465 of the full-length sequence of the human enzyme may be amplified by PCR and cloned into the HindIII and EcoRI sites of pFLAG-CTC (Sigma). SEQ. I.D. No. 1 corresponds to residues 12-465 of glucokinase.
The expression of recombinant glucokinase protein may be carried out by transformation and growth of DH10b-Tlr E. coli cells incorporating the (pFLAG-CTC) plasmid in LB media. Protein expression can be induced in this system by the addition of IPTG to the culture medium.
Recombinant protein may be isolated from cellular extracts by passage over Sepharose Q Fast Flow resin (Pharmacia). This partially purified GK extract may then be further purified by a second passage over Poros HQ 10 (Applied Biosystems). The purity of GK may be determined on denaturing SDS-PAGE gel. Purified GK may then be concentrated to a final concentration of 20.0 mg/ml. After flash freezing in liquid nitrogen, the proteins can be stored at −78° C. in a buffer containing 25 mM TRIS-HCl pH 7.6, 50 mM NaCl, and 0.5 mM TCEP.
The activation properties of compounds for GK may be determined using a black 384-well-plate format under the following reaction conditions: 25 mM Hepes pH 7.2, 25 mM NaCl, 10 mM MgCl2, 0.01% Brij35, 1 mM DTT, 5 μM ATP, 5 mM Glucose 2% DMSO. The amount of ATP consumed may be determined quantitatively by addition of equal volume of luciferase reagent (luciferase+beetle luciferin—KinaseGlo Luminescent Kinase Assay kit from Promega). The luminescence intensity may be measured by using the Analyst HT from LJL Biosystems.
The assay reaction may be initiated as follows: 4 μl of substrate mixture (12.5 μM ATP and 12.5 mM Glucose) was added to each well of the plate, followed by the addition of 2 μl of activator (2 fold serial dilutions for 11 data points for each activator) containing 10% DMSO. 4 μL of 1.25 nM GK solution may be added to initiate the reaction. The reaction mixture may then be incubated at room temperature for 60 min, and quenched and developed by addition of 10 μL of luciferase reagent. Luminescence intensities of the resulting reaction mixtures may be measured after a 10 min incubation at room temperature. The luminescence intensity may be measured by using the Analyst HT from LJL Biosystems.
pKact and % ACTmax values may be calculated by non-linear curve fitting of the compound concentrations and luminescence intensities to a standard inhibition/activation equation.

For `O=C(Nc1nccs1)[C@H](CC1CCCCC1)N1CCN(S(=O)(=O)c2ccc3c(c2)OCCO3)CC1=O` [Example 53, (S)-3-cyclohexyl-2-(4-(2,3-dihydrobenzo[b][1,4]dioxin-6-ylsulfonyl)-2-oxopiperazin-1-yl)-N-(thiazol-2-yl)propanamide], the EC50 fell in the range of 794 to 1260 nM and the Emax is 74.1 to 97%.

In the case of `Cc1nc(C)c(S(=O)(=O)N2CCN([C@@H](CC3CCCCC3)C(=O)Nc3nccs3)C(=O)C2)s1` [Example 54, (S)-3-cyclohexyl-2-(4-(2,4-dimethylthiazol-5-ylsulfonyl)-2-oxopiperazin-1-yl)-N-(thiazol-2-yl)propanamide], the EC50 is not below 3160 nM and the Emax was not below 119%.

With `O=C(Nc1nccs1)[C@H](CC1CCCCC1)N1CCN(S(=O)(=O)c2ccc(C(F)(F)F)cc2)CC1=O` [Example 55, (S)-3-cyclohexyl-2-(2-oxo-4-(4-(trifluoromethyl)phenylsulfonyl)piperazin-1-yl)N-(thiazol-2-yl)propanamide], the EC50 fell in the range of 794 to 1260 nM and the Emax is not above 74%.

Turning to `O=C(Nc1nccs1)[C@H](CC1CCCCC1)N1CCN(S(=O)(=O)c2cc(Cl)ccc2Cl)CC1=O` [Example 56, (S)-3-cyclohexyl-2-(4-(2,5-dichlorophenylsulfonyl)-2-oxopiperazin-1-yl)-N-(thiazol-2-yl)propanamide], the EC50 lay within 794 to 1260 nM and the Emax is 108 to 119%.

`O=C(Nc1nccs1)[C@H](CC1CCCCC1)N1CCN(S(=O)(=O)c2cc(Cl)cc(Cl)c2)CC1=O` [Example 57, (S)-3-cyclohexyl-2-(4-(3,5-dichlorophenylsulfonyl)-2-oxopiperazin-1-yl)-N-(thiazol-2-yl)propanamide]: the EC50 is not above 631 nM and the Emax was 74.1 to 97%.

As for `O=C(Nc1nccs1)[C@H](CC1CCCCC1)N1CCN(S(=O)(=O)c2ccc(F)cc2F)CC1=O` [Example 58, (S)-3-cyclohexyl-2-(4-(2,4-difluorophenylsulfonyl)-2-oxopiperazin-1-yl)-N-(thiazol-2-yl)propanamide], the EC50 fell in the range of 794 to 1260 nM and the Emax was 108 to 119%.

For the molecule `CC(C)S(=O)(=O)N1CCN([C@@H](CC2CCCCC2)C(=O)Nc2nccs2)C(=O)C1` [Example 59, (S)-3-cyclohexyl-2-(4-(isopropylsulfonyl)-2-oxopiperazin-1-yl)-N-(thiazol-2-yl)propanamide], the EC50 lay within 1580 to 2510 nM and the Emax is not below 119%.

For `Cc1oncc1S(=O)(=O)N1CCN([C@@H](CC2CCCCC2)C(=O)Nc2nccs2)C(=O)C1` [Example 60, (S)-3-cyclohexyl-2-(4-(5-methylisoxazol-4-ylsulfonyl)-2-oxopiperazin-1-yl)-N-(thiazol-2-yl)propanamide], the EC50 fell in the range of 794 to 1260 nM and the Emax was not above 74%.

In the case of `O=C(Nc1nccs1)[C@H](CC1CCCCC1)N1CCN(S(=O)(=O)c2cccc(F)c2)CC1=O` [Example 61, (S)-3-cyclohexyl-2-(4-(3-fluorophenylsulfonyl)-2-oxopiperazin-1-yl)-N-(thiazol-2-yl)propanamide], the EC50 is not above 631 nM and the Emax is 108 to 119%.

On to `N#Cc1cccc(S(=O)(=O)N2CCN([C@@H](CC3CCCCC3)C(=O)Nc3nccs3)C(=O)C2)c1` [Example 62, (S)-2-(4-(3-cyanophenylsulfonyl)-2-oxopiperazin-1-yl)-3-cyclohexyl-N-(thiazol-2-yl)propanamide], for which the EC50 fell in the range of 794 to 1260 nM and the Emax is 108 to 119%.

As for `O=C(Nc1nccs1)[C@H](CC1CCCCC1)N1CCN(S(=O)(=O)Cc2cccc(Cl)c2)CC1=O` [Example 63, (S)-2-(4-(3-chlorobenzylsulfonyl)-2-oxopiperazin-1-yl)-3-cyclohexyl-N-(thiazol-2-yl)propanamide], the EC50 fell in the range of 1580 to 2510 nM and the Emax is 108 to 119%.

Consider `NC(=O)Nc1ccc(S(=O)(=O)N2CCN([C@@H](CC3CCCCC3)C(=O)Nc3nccs3)C(=O)C2)cc1` [Example 64, (S)-3-cyclohexyl-2-(2-oxo-4-(4-ureidophenylsulfonyl)piperazin-1-yl)-N-(thiazol2-yl)propanamide], for which the EC50 is not below 3160 nM and the Emax was 97.1 to 107%.

Turning to `O=C(Nc1nccs1)[C@H](CC1CCCCC1)N1CCN(S(=O)(=O)c2cccc3ccccc23)CC1=O` [Example 65, (S)-3-cyclohexyl-2-(4-(naphthalen-1-ylsulfonyl)-2-oxopiperazin-1-yl)-N-(thiazol-2-yl)propanamide], the EC50 was in the range of 1580 to 2510 nM and the Emax is not above 74%.

With `N#Cc1ccc(S(=O)(=O)N2CCN([C@@H](CC3CCCCC3)C(=O)Nc3nccs3)C(=O)C2)cc1` [Example 66, (S)-2-(4-(4-cyanophenylsulfonyl)-2-oxopiperazin-1-yl)-3-cyclohexyl-N-(thiazol-2-yl)propanamide], the EC50 is 1580 to 2510 nM and the Emax is 74.1 to 97%.

On to `O=C(Nc1nccs1)[C@H](CC1CCCCC1)N1CCN(S(=O)(=O)c2cccc(Cl)c2)CC1=O` [Example 67, (S)-2-(4-(3-chlorophenylsulfonyl)-2-oxopiperazin-1-yl)-3-cyclohexyl-N-(thiazol-2-yl)propanamide], for which the EC50 is not above 631 nM and the Emax is 108 to 119%.

In the case of `O=C(Nc1nccs1)[C@H](CC1CCCCC1)N1CCN(S(=O)(=O)Cc2ccc(F)cc2)CC1=O` [Example 68, (S)-3-cyclohexyl-2-(4-(4-fluorobenzylsulfonyl)-2-oxopiperazin-1-yl)-N-(thiazol-2-yl)propanamide], the EC50 is 794 to 1260 nM and the Emax is 97.1 to 107%.

Consider `O=C(Nc1nccs1)[C@H](CC1CCCCC1)N1CCN(S(=O)(=O)Cc2ccc(Cl)cc2)CC1=O` [Example 69], for which the EC50 fell in the range of 1580 to 2510 nM and the Emax was 97.1 to 107%.

In the case of `O=C(Nc1nccs1)[C@H](CC1CCCCC1)N1CCN(S(=O)(=O)c2ccc(OC(F)F)cc2)CC1=O` [Example 70, (S)-3-cyclohexyl-2-(4-(4-(difluoromethoxy)phenylsulfonyl)-2-oxopiperazin-1-yl)-N-(thiazol-2-yl)propanamide], the EC50 was in the range of 1580 to 2510 nM and the Emax is 74.1 to 97%.

As for `O=C(Nc1nccs1)[C@H](CC1CCCCC1)N1CCN(S(=O)(=O)c2ccccc2C(F)(F)F)CC1=O` [Example 71, (S)-3-cyclohexyl-2-(2-oxo-4-(2-(trifluoromethyl)phenylsulfonyl)piperazin-1-yl)-N-(thiazol-2-yl)propanamide], the EC50 is not above 631 nM and the Emax is 108 to 119%.

Take `O=C(Nc1nccs1)[C@H](CC1CCCCC1)N1CCN(C(=O)Nc2cccc3ccccc23)CC1=O` [Example 77, (S)-4-(3-cyclohexyl-1-oxo-1-(thiazol-2-ylamino)propan-2-yl)-N-(naphthalen-1-yl)-3-oxopiperazine-1-carboxamide]: the EC50 is not below 3160 nM and the Emax is 74.1 to 97%.

For the molecule `O=C(Nc1nccs1)[C@H](CC1CCCCC1)N1CCN(S(=O)(=O)c2ccccc2)CC1=O` [Example 79, (S)-3-cyclohexyl-2-(2-oxo-4-(phenylsulfonyl)piperazin-1-yl)-N-(thiazol-2-yl)propanamide], the EC50 is not above 631 nM and the Emax was 97.1 to 107%.

For the molecule `O=C(Nc1nccs1)[C@H](CC1CCCCC1)N1CCN(C(=S)Nc2cccc3ccccc23)CC1=O` [Example 80, (S)-3-cyclohexyl-2-(4-(naphthalen-1-ylcarbamothioyl)-2-oxopiperazin-1-yl)-N-(thiazol-2-yl)propanamide], the EC50 lay in the range of 1580 to 2510 nM and the Emax is 97.1 to 107%.
